Data from US5663417A, “Carbocyclic sulfonamides” (Ono Pharmaceutical Co., Ltd., priority 1993, dated 1997).

Target: prostaglandin E2 receptor
Assay: inhibition of [^3 H]-PGE2 receptor binding in rat uterus membrane fraction
Conditions: Table I; 5 nM [^3 H]-PGE2, rat uterus crude membrane fraction, pH 6.0, 1 hour at room temperature; read-out: IC50, inhibitory effects of PGE2 receptor binding in rat
Experimental: (i) The measurement of the inhibition of [^3 H]-PGE2 receptor binding
The standard assay mixture contained 5 nM [^3 H]-PGE2 (50 μl), test compounds (50 μl) and crude membrane fraction obtained from rat uterus (1.2 mg protein/ml, 100 μl) in a final volume of 200 μl (10 mM potassium phosphate pH 6.0, 0.1M NaCl (buffer A)). After incubation for 1 hour at room temperature, the reaction was stopped by the addition of 3 ml of ice-cold buffer A, after which the mixture was rapidly filtered through a Whatman GF/B glass filter. The radioactivity associated with the filter was measured in ACS II (Amarsham) by liquid scintillation counting. Percent inhibition of specific [^3 H]-PGE2 binding or IC50 value, the concentration required to compete with ^3 H-PGE2 receptor binding by 50% were calculated.

Row | IC50 [µM] | Structure (SMILES)
1 | 1.8 | O=C(O)CCC/C=C\C1CCCC1CNS(=O)(=O)c1ccc(Br)cc1 (stereo not drawn)
2 | 8 | Cc1ccc(S(=O)(=O)NCC2CCCC2/C=C\CCCC(=O)O)cc1 (stereo not drawn)
3 | 3.4 | Cc1ccc(S(=O)(=O)NC2C3CCC(C3)C2C/C=C\CCCC(=O)O)cc1 (racemic) [5 (b), a mixture of 7-[(1R,2S,3S, 4S)-3-tosylaminobicyclo[2.2.1]heptan-2-yl]-5Z-heptenoic acid and an isomer of (1S, 2S,3S,4R)]
4 | 3.6 | Cc1ccc(S(=O)(=O)N[C@H]2C3CCC(CC3)[C@@H]2C/C=C\CCCC(=O)O)cc1 (relative stereo) [5 (a), 7-[(2S*,3S*)-3-tosylaminobicyclo[2.2.2]octan-2-yl]-5Z-heptenoic acid]
5 | 5.7 | Cc1ccc(S(=O)(=O)N[C@H]2[C@H]3CC[C@H](C3)[C@@H]2C/C=C\CCCC(=O)O)cc1 (relative stereo) [5 (c), 7-[(1R*,2S*,3S*,4S*)-3-tosylaminobicyclo[2.2.1]heptan-2-yl]-5Z-heptenoic acid]
6 | 3.5 | Cc1ccc(S(=O)(=O)N[C@H]2CCC[C@@H]2C/C=C\CCCC(=O)O)cc1 (relative stereo) [5 (g), 7-[(1R*,2S*)-2-tosylaminocyclopentyl-5Z-heptenoic acid]
7 | 0.2 | O=C(O)CCC/C=C\C[C@H]1CCC[C@@H]1NS(=O)(=O)c1ccc(Br)cc1 (relative stereo) [5 (h), 7-[(1R*,2S*)-2-(4-bromophenylsulfonylamino)cyclopentyl]-5Z-heptenoic acid]
8 | 2.4 | O=C(O)CCC/C=C\[C@@H]1CCC[C@@H](NS(=O)(=O)c2ccc(Br)cc2)C1 (relative stereo) [U.S. Pat. No. 5168101 1 (l)]
9 | 0.5 | O=C(O)CCC/C=C\[C@@H]1CCC[C@H](NS(=O)(=O)c2ccc(Br)cc2)C1 (relative stereo) [U.S. Pat. No. 5168101 1 (m)]
10 | 7.6 | CC1(C)[C@H]2C[C@H](NS(=O)(=O)c3ccccc3)[C@@H](C/C=C\CCCC(=O)O)[C@@H]1C2 [3 (a), 7-[(1S,2S,3S,5R)-3-phenylsulfonylamino-6,6-dimethylbicyclo[3.1.1]heptan-2-yl]-5Z-heptenoic]
11 | 0.57 | CCc1ccc(S(=O)(=O)N[C@H]2C[C@H]3C[C@@H]([C@@H]2C/C=C\CCCC(=O)O)C3(C)C)cc1 [3 (b), 7-[(1S,2S,3S,5R)-3-(4-ethylphenyl)sulfonylamino-6,6-dimethylbicyclo[3.1.1]heptan-2-yl]-5Z-heptenoic]
12 | 6.3 | CC(C)(C)c1ccc(S(=O)(=O)N[C@H]2C[C@H]3C[C@@H]([C@@H]2C/C=C\CCCC(=O)O)C3(C)C)cc1 [3 (c), 7-[(1S,2S,3S,5R)-3-(4-tert-butylphenyl)sulfonylamino-6,6-dimethylbicyclo[3.1.1]heptan-2-yl]-5Z-heptenoic acid]
13 | 0.82 | COc1ccc(S(=O)(=O)N[C@H]2C[C@H]3C[C@@H]([C@@H]2C/C=C\CCCC(=O)O)C3(C)C)cc1 [3 (d), 7-[(1S,2S,3S,5R)-3-(4-methoxyphenyl)sulfonylamino-6,6-dimethylbicyclo[3.1.1]heptan-2-yl]-5Z-heptenoic acid]
14 | 2.6 | CC1(C)[C@H]2C[C@H](NS(=O)(=O)c3ccc(F)cc3)[C@@H](C/C=C\CCCC(=O)O)[C@@H]1C2 [3 (e), 7-[(1S,2S,3S,5R)-3-(4-fluorophenyl)sulfonylamino-6,6-imethylbicyclo[3.1.1]heptan-2-yl]-5Z-heptenoic]
15 | 0.75 | CC1(C)[C@H]2C[C@H](NS(=O)(=O)c3ccc(Cl)cc3)[C@@H](C/C=C\CCCC(=O)O)[C@@H]1C2 [3 (f), 7-[(1S,2S,3S,5R)-3-(4-chlorophenyl)sulfonylamino-6,6-imethylbicyclo[3.1.1]heptan-2-yl]-5Z-heptenoic]
16 | 0.054 | CC1(C)[C@H]2C[C@H](NS(=O)(=O)c3ccc(I)cc3)[C@@H](C/C=C\CCCC(=O)O)[C@@H]1C2 [3 (g), 7-[(1S,2S,3S,5R)-3-(4-iodophenyl)sulfonylamino-6,6-dimethylbicyclo[3.1.1]heptan-2-yl]-5Z-heptenoic]
17 | 0.21 | CC1(C)[C@H]2C[C@H](NS(=O)(=O)c3ccc([N+](=O)[O-])cc3)[C@@H](C/C=C\CCCC(=O)O)[C@@H]1C2 [3 (h), 7-[(1S,2S,3S,5R)-3-(4-nitrophenyl)sulfonylamino-6,6-dimethylbicyclo[3.1.1]heptan-2-yl]-5Z-heptenoic]
18 | 0.09 | CC1(C)[C@H]2C[C@H](NS(=O)(=O)c3ccc4ccccc4c3)[C@@H](C/C=C\CCCC(=O)O)[C@@H]1C2 [3 (i), 7-[(1S,2S,3S,5R)-3-(2-naphtyl)sulfonylamino-6,6-dimethylbicyclo[3.1.1]heptan-2-yl]-5Z-heptenoic]
19 | 5 | CCCCS(=O)(=O)N[C@H]1C[C@H]2C[C@@H]([C@@H]1C/C=C\CCCC(=O)O)C2(C)C [3 (j), 7-[(1S,2S,3S,5R)-3-butylsulfonylamino-6,6-dimethylbicyclo[3.1.1]heptan-2-yl]-5Z-heptenoic acid]
20 | 0.025 | CCCCCCS(=O)(=O)N[C@H]1C[C@H]2C[C@@H]([C@@H]1C/C=C\CCCC(=O)O)C2(C)C [3 (k), 7-[(1S,2S,3S,5R)-3-hexylsulfonylamino-6,6-dimethylbicyclo[3.1.1]heptan-2-yl]-5Z-heptenoic acid]
21 | 0.36 | CCCCCCCCS(=O)(=O)N[C@H]1C[C@H]2C[C@@H]([C@@H]1C/C=C\CCCC(=O)O)C2(C)C [3 (l), 7-[(1S,2S,3S,5R)-3-octylsulfonylamino-6,6-dimethylbicyclo[3.1.1]heptan-2-yl]-5Z-heptenoic acid]
22 | 0.0054 | CC1(C)[C@H]2C[C@H](NS(=O)(=O)CCc3ccccc3)[C@@H](C/C=C\CCCC(=O)O)[C@@H]1C2 [3 (m), 7-[(1S,2S,3S,5R)-3-(2-phenylethyl)sulfonylamino-6,6-dimethylbicyclo[3.1.1]heptan-2-yl]-5Z-heptenoic acid]
23 | 0.12 | CC1(C)[C@H]2C[C@H](NS(=O)(=O)CCC3CCCCC3)[C@@H](C/C=C\CCCC(=O)O)[C@@H]1C2 [3 (n), 7-[(1S,2S,3S,5R)-3-(2-cyclohexylethyl)sulfonylamino-6,6-dimethylbicyclo[3.1.1]heptan-2-yl]-5Z-heptenoic acid]
24 | 2.1 | Cc1ccc(S(=O)(=O)N[C@H]2C3CCC(CC3)[C@@H]2C/C=C\CCCC(=O)O)cc1 [5 (d), 7-[(2S,3S)-3-tosylaminobicyclo[2.2.2]octan-2-yl]-5Z-heptenoic acid]
25 | 0.06 | O=C(O)CCC/C=C\CC1CCCCC1NS(=O)(=O)c1ccc(Br)cc1 (stereo not drawn) [5 (e), 7-[2-(4-bromophenylsulfonylamino)cyclohexyl]-5Z-heptenoic acid]
26 | 5 | O=C(O)CCC/C=C\CC1CCCCC1NS(=O)(=O)c1ccc(Br)cc1 (stereo not drawn) [5 (f), 7-[2-(4-bromophenylsulfonylamino)cyclohexyl]-5Z-heptenoic acid]
27 | 6.5 | O=C(O)CCCC=CC1C2CCC(C2)C1CNS(=O)(=O)c1ccc(Br)cc1 [5 (i), 6-[(1S,2S,3S,4R)-3-(4-bromophenylsulfonylaminomethyl)bicyclo[2.2.1]heptan-2-yl]-5Z-hexenoic acid]
28 | 0.44 | CC1(C)[C@H]2C[C@H](NS(=O)(=O)c3ccc(Br)cc3)[C@@H](C/C=C\CCCC(=O)O)[C@@H]1C2 [Example 2, 7-[(1S,2S,3S,5R)-3-(4-bromophenyl)sulfonylamino-6,6-dimethylbicyclo [3.1.1]heptan-2-yl]-5Z-heptenoic acid]
29 | 3.4 | Cc1ccc(S(=O)(=O)N[C@H]2[C@H]3CC[C@H](C3)[C@@H]2C/C=C\CCCC(=O)O)cc1 [Example 4, 7-[(1R,2S,3S,4S)-3-tosylaminobicyclo[2.2.1]heptan-2-yl]-5Z-heptenoic acid]

Same assay, conditions: Table II; 5 nM [^3 H]-PGE2, rat uterus crude membrane fraction, pH 6.0, 1 hour at room temperature; read-out: IC50, inhibitory effects of PGE2 receptor binding in rat

Row | IC50 [µM] | Structure (SMILES)
30 | 0.23 | O=C(O)CCC/C=C\C[C@H]1CCCC[C@@H]1NS(=O)(=O)/C=C/c1ccccc1 (relative stereo) [6 (19), 7-[(1R*, 2S*)-2-(2-phenylvinylsulfonylamino)cyclohexyl]-5Z-heptenoic]
31 | 0.6 | O=C(O)CCC/C=C\[C@@H]1CCC[C@@H](NS(=O)(=O)/C=C/c2ccccc2)C1 (relative stereo) [6 (21), 6-[(1R*, 3R*)-3-(2-phenylvinylsulfonylamino)cyclohexyl]-5Z-hexenoic]
32 | 0.0036 | CC1(C)[C@H]2C[C@H](NS(=O)(=O)/C=C/c3ccc(F)cc3)[C@@H](C/C=C\CCCC(=O)O)[C@@H]1C2 [6 (2), 7-[(1S, 2S, 3S, 5R)-3-[2-(4-fluorophenyl)vinylsulfonylamino]-6,6-dimethylbicyclo[3.1.1]heptan-2-yl]-5Z-heptenoic acid]
33 | 0.8 | CCCC/C=C/S(=O)(=O)N[C@H]1C[C@H]2C[C@@H]([C@@H]1C/C=C\CCCC(=O)O)C2(C)C [6 (14)]
34 | 0.017 | O=C(O)CCC/C=C\[C@@H]1[C@H]2CC[C@H](C2)[C@H]1CNS(=O)(=O)/C=C/c1ccccc1 [6 (18), 6-[(1S, 2S, 3R, 4R)-3-(2-phenylvinylsulfonylaminomethyl)bicyclo[2.2.1]heptan-2-yl]-5Z-hexenoic acid]
35 | 1.8 | O=C(O)CCC/C=C\[C@H]1CC[C@@H](NS(=O)(=O)/C=C/c2ccccc2)C1 [6 (22), 6-[(1S, 3R)-3-(2-phenylvinylsulfonyl-amino)cyclopentyl]-5Z-hexenoic]
36 | 0.038 | CC1(C)[C@H]2C[C@H](NS(=O)(=O)/C=C/c3ccccc3)[C@@H](C/C=C/CCCC(=O)O)[C@@H]1C2 [6 (26), 7-[(1S, 2S, 3S, 5R)-3-(2-phenylvinylsulfonylamino)-6,6-dimethylbicyclo [3.1.1]heptan-2-yl]-5E-heptenoic acid]
